A short description of the data set: Human HepG2 cell viability assay in 384 well format. The format is toxicity, cell-based. Also on record: dose 125 nL, time 70.5 hour; concentration not given beside the values. To be noted: HepG2 cells, read-out: Inhibition.
Regarding `CCc1nc(C2CCCN2Cc2nc(CCOC)no2)no1` (stereo unspecified), the cytotoxicity at 70.5 h is -9.31%.

As for `CC(C)C(C(=O)N1CCCN(Cc2cnn(C)c2)CC1)n1cncn1` (stereo unspecified), the cytotoxicity at 70.5 h was -7.59%. For the compound `COCCC(=O)N1CCc2cc(Cl)cc(Cl)c2C1`, the cytotoxicity at 70.5 h was -2.57%. The figure for `CN(Cc1cccc(F)c1)C(=O)CN1CCCC1CCc1ccccc1` (stereo unspecified) is -4.07%; for `CC(C)OCCOCc1cccc(NC(=O)NCCn2ccnc2)c1` it is -8.94%; for `COc1cccc(CN(C)C(=O)CN2CC(n3nc(C)cc3C)C2)c1` it is -1.82%.

Turning to `COc1cccc(CN(C)C(=O)Nc2ccc3c(c2)OCCO3)c1`, the cytotoxicity at 70.5 h is 12.4%. Take `CCc1ccc(CNC(=O)NC(C)CN2CCOCC2)s1` (stereo unspecified): the cytotoxicity at 70.5 h was 6.35%. Next, `CC(CN1CCOCC1)NC(=O)N(C)Cc1ccc(Cl)s1` (stereo unspecified): -2.73%. The figure for `CC(=O)N1CCCN(Cc2csc(-c3ncccn3)n2)CC1` is -7.01%; for `CCN(CC)C(=O)c1ccc(NC(=O)CNc2ccc(F)cc2Cl)cc1` it is -6.34%; for `Cc1cc(=O)n2ncnc2n1CC(O)c1cc(F)ccc1F` (stereo unspecified) it is -11.1%. On to `O=C(Cc1ccccc1F)N1CCN(C(=O)c2ccoc2)CC1`, for which the cytotoxicity at 70.5 h is -1.84%. For the compound `COc1ccc(-c2nnc(SC(C)C(=O)NCC(C)C)[nH]2)c(OC)c1` (stereo unspecified), the cytotoxicity at 70.5 h was found to be 56.9%. The figure for `COc1ccc(-c2nnc(SC(C)C(=O)NC3CC3)[nH]2)c(OC)c1` (stereo unspecified) is 30.9%; for `O=C(c1cc[nH]n1)N1CCCC1C1CCN(Cc2ccccc2)CC1` (stereo unspecified) it is -3.3%; for `O=C(CCN1CCC(C(=O)c2cc(F)ccc2F)CC1)NC1CC1` it is -0.804%.

Take `Cc1c(C(=O)NC(C)C(C)C)nnn1-c1cccc2c1CCN(C)C2` (stereo unspecified): the cytotoxicity at 70.5 h was 5.93%. Consider `Cc1cc(C)n(C2CN(CC(=O)N(C)Cc3ccc(C)o3)C2)n1`, for which the cytotoxicity at 70.5 h is -9.43%.

`CCS(=O)(=O)N1CCc2c(cccc2NC(=O)NCCOC)C1`: the cytotoxicity at 70.5 h is -1.31%. Take `Cc1ccccc1CS(=O)(=O)CC(=O)NCc1ccccc1F`: the cytotoxicity at 70.5 h came to 4.2%. As for `COc1ccc(NC(=O)C(c2cccc(F)c2)N2CCOCC2)cc1` (stereo unspecified), the cytotoxicity at 70.5 h was -8.8%. Next, `CCCOCC(=O)NC1CCc2nc(C)cn2C1` (stereo unspecified): -2.67%. Next, `CCOCCC(=O)Nc1cccc(Oc2ccccn2)c1`: 23.9%. The figure for `Cc1n[nH]c(C2CN(C(=O)c3ccco3)CCO2)n1` (stereo unspecified) is -4.63%; for `COc1cccc(CN(C)C(=O)CSc2ccc3c(c2)OCCO3)c1` it is -4.28%; for `CN(C)C(=O)Cc1nc(CN2CCCCC2Cn2cccn2)cs1` (stereo unspecified) it is 37%. On to `CCN(Cc1ccco1)C(=O)c1cc(OC)c2c(c1)OCCO2`, for which the cytotoxicity at 70.5 h was found to be 5.2%.

For the compound `CCOCCOC(C)C(=O)NCc1cn2cc(Br)ccc2n1` (stereo unspecified), the cytotoxicity at 70.5 h was -1.73%. The figure for `CCN(C(=O)COC)C(c1cccnc1)c1cc(C)cc(C)c1` (stereo unspecified) is 13.8%; for `CCN(C(=O)COC)C(c1cccnc1)c1ccc2c(c1)CCO2` (stereo unspecified) it is -2.44%.

Turning to `c1cnnc(N2CCCC2CNCc2nc3ccccc3o2)c1` (stereo unspecified), the cytotoxicity at 70.5 h was -9.74%. The figure for `Cc1ccc(F)cc1S(=O)(=O)N(C)CC(N)=O` is -11.9%; for `Cc1nc(CCNC(=O)NC2CCN(c3ncccn3)CC2)cs1` it is -8.38%; for `CN(CC(N)=O)S(=O)(=O)c1ccc(F)cc1Cl` it is -11.4%.

For `CC(C)Oc1ncc(C(=O)N2CCC(NC(=O)C3CC3)CC2)cc1Cl`, the cytotoxicity at 70.5 h is 7%. Next, `CCN(CC)C1CCN(C(=O)NCc2c(C)noc2C)CC1`: -7.03%. As for `COC(=O)CCNC(=O)c1ccoc1CN1c2ccccc2CC1C` (stereo unspecified), the cytotoxicity at 70.5 h is -1.15%. Next, `O=C(NCCC1CCCO1)c1ccccc1N1CCOCC1` (stereo unspecified): 1.49%. The figure for `Cc1ccc(N2CCCN(C(=O)c3cc(Cl)c[nH]3)CC2)nn1` is -8.66%. In the case of `Cc1nnc2n1CCN(C(=O)c1cn(-c3ccccc3Cl)nn1)C2`, the cytotoxicity at 70.5 h was -9.21%. The figure for `Cc1cccc(N2CCN(C(=O)CN3CCN(CCO)CC3)CC2)c1` is 0.659%. Next, `CN1CCCc2cc(NC(=O)N3CCOC(C(N)=O)C3)ccc21` (stereo unspecified): 3.77%; `Cc1cnc(C(=O)N2CCCN(Cc3csc(C)n3)CC2)cn1`: -5.72%; `Cc1ccc(OCC(=O)NCc2ccccc2F)nc1`: -2.31%. `CS(=O)(=O)c1ccc(OCCNCc2ccc(F)cc2F)cc1`: the cytotoxicity at 70.5 h stood at 0.183%. Consider `CCN(CC)c1ccc(NS(=O)(=O)c2cnn(C)c2)cn1`, for which the cytotoxicity at 70.5 h is -2.05%. The figure for `CCCNC(=O)COc1ccc(C)cn1` is -0.369%; for `CC(C)Oc1cccc(C(O)CNC(=O)CCc2ccncc2)c1` (stereo unspecified) it is -5.8%; for `Cc1[nH]ccc1C(=O)Nc1cccc(CN2CCC(CO)CC2)c1` it is 27.9%. Next, `Cc1[nH]ccc1C(=O)Nc1cccc(CN2CCC(O)CC2)c1`: 1.4%.

Regarding `NCC(c1ccccc1)N1CCc2sccc2C1` (stereo unspecified), the cytotoxicity at 70.5 h turned out to be 5.18%. The figure for `O=C(Nc1ccccn1)C1CC(=O)N(Cc2ccccn2)C1` (stereo unspecified) is 16.8%; for `O=C(NC1CCC1)c1c2c(N3CCCC3)ncnc2n2ccccc12` it is -2.42%. The figure for `CC(=O)N1CCC2(CCN(C(=O)c3ccc(F)c(C(F)(F)F)c3)CC2)C1` is -6.93%; for `O=C(c1ccccn1)N1CC[C@@H](N2CCOCC2)[C@@H]1Cc1ccccc1` it is -10.4%; for `O=C(c1cnccn1)N1CC[C@H]2C[C@@H](c3ccncn3)O[C@@H]2C1` it is -11.7%. Next, `O=C(c1ccoc1)N1CC[C@H]2C[C@@H](c3ccncn3)O[C@@H]2C1`: 4.08%. As to `O=C(c1ccsc1)N1CC[C@@H](N2CCOCC2)[C@@H]1Cc1ccccc1`, the cytotoxicity at 70.5 h was -11.8%. The figure for `Cc1ccc(CN2CCC3(CC(=O)N(c4ccc5c(c4)OCO5)C3)C2)o1` (stereo unspecified) is -6.86%; for `Cc1cc(C(=O)N2CC[C@H]3C[C@H](c4ccncn4)O[C@@H]3C2)c(C)[nH]1` it is -4.78%. In the case of `CC(=O)N1CCC2(CC1)CCN(C(=O)c1ccc(F)c(C(F)(F)F)c1)C2`, the cytotoxicity at 70.5 h was -7.91%. On to `CC(=O)N1CCC2(CCN(Cc3ccc(Cl)c(C(F)(F)F)c3)CC2)C1`, for which the cytotoxicity at 70.5 h is -11.6%. Take `CC(=O)N1CCC2(CCN(C(=O)c3ccc(F)c(C(F)(F)F)c3)C2)C1` (stereo unspecified): the cytotoxicity at 70.5 h was -12.8%. Next, `Cn1cccc1C(=O)N1C[C@@H](OCc2cccnc2)[C@H]2OCCC[C@H]21`: 8.24%; `c1cc(CN2CCOCC3(CCN(C4CCOCC4)C3)C2)ccn1` (stereo unspecified): 6.88%; `O=C(NCC1Cn2nnc(-c3cccc(F)c3)c2CO1)c1ccc[nH]1` (stereo unspecified): 4.99%. The figure for `c1cnc(OCc2nnc3n2CCN(CC2CCOCC2)C3)nc1` is -7.25%. Next, `Cc1nccc([C@H]2C[C@@H]3CCN(Cc4ccco4)C[C@H]3O2)n1`: -10.9%; `CCOCC1CC2(CCN(C(=O)c3ncccn3)CC2)CO1` (stereo unspecified): -10.5%; `CN(C)Cc1nnc2n1CCN(Cc1ccccn1)CC2`: -10.5%.

Regarding `CC(C)NC(=O)N1CCC2(CC(=O)N(c3cccc(F)c3)C2)C1` (stereo unspecified), the cytotoxicity at 70.5 h is -12.8%.

Take `CO[C@H]1CN(C(=O)c2ccnnc2)[C@@H]2COC[C@H]12`: the cytotoxicity at 70.5 h is 36.6%. Next, `O=C(NCc1ccccc1F)C1=NOC2(CCNC2)C1` (stereo unspecified): -10.8%. Next, `O=C(NCc1ccco1)[C@H]1CC[C@@H]2[C@@H](CCN2c2ncc(F)cn2)O1`: -10.2%. The figure for `CN(C)S(=O)(=O)N1CCC[C@]2(C[C@@H](Oc3ncccc3F)CO2)C1` is -11.4%; for `COCC1CN(Cc2cnn(C)c2)Cc2nn(C)cc21` (stereo unspecified) it is -11.4%.

Regarding `O=S(=O)(C1CC1)N1CC[C@]2(C[C@@H](Oc3ncccc3F)CO2)C1`, the cytotoxicity at 70.5 h amounted to 6.64%. Next, `CN(C)S(=O)(=O)N1CC[C@]2(C[C@@H](Oc3cccnc3)CO2)C1`: -5.96%; `Cc1ccoc1C(=O)N1C[C@H](OCc2cccnc2)[C@H]2OCCC[C@H]21`: -15.2%. As for `O=C(O)c1c(-c2cccnc2)ncc2c1CCN(CC1CCOC1)C2` (stereo unspecified), the cytotoxicity at 70.5 h was 16.6%. The figure for `O=C(c1ccccn1)N1CCC2(CC1)COC(COCC1CCCC1)C2` (stereo unspecified) is -13.8%; for `CCOCC1CN(Cc2ccncc2)Cc2nn(C)cc21` (stereo unspecified) it is -7.15%; for `O=C1CO[C@@H]2CN(Cc3ccsc3)C[C@H]2N1Cc1ccncc1` it is 13.6%. The figure for `O=C1NC2(CCN(Cc3cccs3)CC2)CC1c1ccncc1` (stereo unspecified) is 10.2%. On to `COc1ccc(CN2CCOCC3(CCN(C4CCOCC4)C3)C2)cc1` (stereo unspecified), for which the cytotoxicity at 70.5 h is -5.87%. The figure for `Fc1cccc(CN2CCOCC3(CCN(C4CCOCC4)C3)C2)c1` (stereo unspecified) is -7.34%; for `Cc1cccc(CN2CCOCC3(CCN(C4CCOCC4)C3)C2)c1` (stereo unspecified) it is 9.31%; for `c1coc(CN2C[C@@H]3CCCO[C@@H]3[C@H](N3CCCC3)C2)c1` it is -8.85%. `O=C1NC2(CCN(Cc3ccc(F)cc3)CC2)CC1c1ccncc1` (stereo unspecified): the cytotoxicity at 70.5 h was -8.27%.

Turning to `CN(Cc1ccco1)[C@@H]1CN(Cc2ccsc2)C[C@@H]2CCCO[C@@H]21`, the cytotoxicity at 70.5 h stood at 2.78%. Next, `CC(=O)N1C[C@@H]2CN(Cc3cccnc3)CCO[C@@H]2C1`: -11.3%; `O=C1NC2(CCN(Cc3cccnc3)CC2)CC1c1cccnc1` (stereo unspecified): -8.55%; `CN(Cc1ccco1)[C@@H]1CN(Cc2cccnc2)C[C@@H]2CCCO[C@@H]21`: -5%. Consider `c1cncc(CN2CCC3(COCCN(C4CCOCC4)C3)C2)c1` (stereo unspecified), for which the cytotoxicity at 70.5 h was -6.19%.

As for `Cc1cccc(CN2CCOCC3(CCN(C4CCOCC4)C3)C2)n1` (stereo unspecified), the cytotoxicity at 70.5 h was determined as 7.65%.

The record behind these values is ChEMBL document CHEMBL3507680, “University of Dundee, Gates Library screen for HepG2 cell viability”.
